Measured values as given in patent publication US11752180B2, “Intestinal protectant” (National University Corporation Asahikawa Medical University, priority 2010, dated 2023).
Where no end group is shown, it is not given here.

System: integrin (integrin β)
Assay: Interaction between polyphosphoric acid and integrin: mannitol ex vivo loop assay with peptide antagonist of integrin
Set-up: species or system mouse
Protocol: Using a peptide antagonist of integrin, the interaction between polyphosphoric acid and integrin was analyzed. For the peptide antagonist of integrin, the peptide having the amino acid sequence of Gly-Arg-Gly-Asp-Thr-Pro (GRGDTP) (hereinafter also referred to as “GRGDTP”) was used. GRGDTP has the sequence of Arg-Gly-Asp (RGD), which is recognized by integrin β.
The intestinal tract permeability experiment on mannitol by ex vivo loop assay was carried out in the same manner as in Example 9 and Example 11 except that GRGDTP was added in a concentration of 100 μg/ml, in addition to the enzymatically synthesized polyphosphoric acid or the chemically synthesized polyphosphoric acid, to the PBS solution to be filled in the intestinal tract, and the intestinal tract barrier function was evaluated.

GRGDTP [peptide antagonist of integrin]
effect of GRGDTP on the intestinal tract barrier effect of chemically synthesized polyphosphoric acid (mannitol leakage) (GRGDTP 100 μg/ml in combination with chemically synthesized polyphosphoric acid): had the same result
effect of GRGDTP on the intestinal tract barrier effect of enzymatically synthesized polyphosphoric acid (mannitol leakage) (GRGDTP 100 μg/ml in combination with enzymatically synthesized polyphosphoric acid): remarkably inhibited
